Results taken from ChEMBL document CHEMBL2321663, “Alkaloids from Sri Lankan curry-leaf (Murraya koenigii) display melanogenesis inhibitory activity: structures of karapinchamines A and B” (Bioorg Med Chem, 2013).

What was measured:
[1] = Cytotoxicity against mouse theophylline-induced B16-4A5 cells assessed as cell viability at 30 uM after 72 hrs by WST8 assay relative to control; assay type: cell-based; settings: read-out: Activity
[2] = molecular target: T1, Tyrosinase (Agaricus bisporus) (UniProt O42713); assay: Inhibition of mushroom tyrosinase using L-DOPA as substrate after at 10 uM after 5 mins relative to control
T1 sequence (whole entry): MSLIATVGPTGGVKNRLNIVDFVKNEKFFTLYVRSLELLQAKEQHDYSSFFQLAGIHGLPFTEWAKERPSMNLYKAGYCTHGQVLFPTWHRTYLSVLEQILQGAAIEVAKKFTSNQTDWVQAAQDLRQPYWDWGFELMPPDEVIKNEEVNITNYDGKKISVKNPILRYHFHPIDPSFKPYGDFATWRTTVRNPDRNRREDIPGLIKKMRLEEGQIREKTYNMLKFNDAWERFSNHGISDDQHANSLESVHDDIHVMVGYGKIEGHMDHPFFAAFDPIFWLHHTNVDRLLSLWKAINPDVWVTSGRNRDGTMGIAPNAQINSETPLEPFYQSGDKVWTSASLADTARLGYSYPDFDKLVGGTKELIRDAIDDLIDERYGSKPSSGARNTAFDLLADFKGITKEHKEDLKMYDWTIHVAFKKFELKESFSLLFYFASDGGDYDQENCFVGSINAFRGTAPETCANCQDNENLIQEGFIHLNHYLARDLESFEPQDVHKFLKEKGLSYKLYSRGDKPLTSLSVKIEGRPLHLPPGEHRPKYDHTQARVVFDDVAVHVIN

[3] = Cytotoxicity against mouse theophylline-induced B16-4A5 cells assessed as cell viability at 3 uM after 72 hrs by WST8 assay relative to control; assay type: cell-based; settings: read-out: Activity
[4] = molecular target: T1, Tyrosinase (Agaricus bisporus); assay: Inhibition of mushroom tyrosinase using L-DOPA as substrate after at 100 uM after 5 mins relative to control
[5] = Inhibition of theophylline-induced melanogenesis in mouse B16-4A5 cells after 72 hrs by spectrophotometric analysis relative to control; assay type: functional, cell-based
[6] = Inhibition of theophylline-induced melanogenesis in mouse B16-4A5 cells at 10 uM after 72 hrs by spectrophotometric analysis relative to control; assay type: functional; settings: B16-4A5, 72 h
[7] = molecular target: T1, Tyrosinase (Agaricus bisporus); assay: Inhibition of mushroom tyrosinase using L-DOPA as substrate after at 1 uM after 5 mins relative to control
[8] = molecular target: T1, Tyrosinase (Agaricus bisporus); assay: Inhibition of mushroom tyrosinase using L-DOPA as substrate after at 30 uM after 5 mins relative to control
[9] = Cytotoxicity against mouse theophylline-induced B16-4A5 cells assessed as cell viability at 10 uM after 72 hrs by WST8 assay relative to control; assay type: cell-based; settings: read-out: Activity
[10] = Inhibition of theophylline-induced melanogenesis in mouse B16-4A5 cells at 30 uM after 72 hrs by spectrophotometric analysis relative to control; assay type: functional; settings: B16-4A5, 72 h
[11] = molecular target: T1, Tyrosinase (Agaricus bisporus); assay: Inhibition of mushroom tyrosinase using L-DOPA as substrate after at 3 uM after 5 mins relative to control
[12] = Inhibition of theophylline-induced melanogenesis in mouse B16-4A5 cells at 3 uM after 72 hrs by spectrophotometric analysis relative to control; assay type: functional; settings: B16-4A5, 72 h
[13] = Cytotoxicity against mouse theophylline-induced B16-4A5 cells assessed as cell viability at 1 uM after 72 hrs by WST8 assay relative to control; assay type: cell-based; settings: read-out: Activity
[14] = Inhibition of theophylline-induced melanogenesis in mouse B16-4A5 cells at 1 uM after 72 hrs by spectrophotometric analysis relative to control; assay type: functional; settings: B16-4A5, 72 h
[15] = Inhibition of theophylline-induced melanogenesis in mouse B16-4A5 cells at 1000 uM after 72 hrs by spectrophotometric analysis relative to control; assay type: functional; settings: B16-4A5, 72 h
[16] = Inhibition of theophylline-induced melanogenesis in mouse B16-4A5 cells at 100 uM after 72 hrs by spectrophotometric analysis relative to control; assay type: functional; settings: B16-4A5, 72 h
[17] = Inhibition of theophylline-induced melanogenesis in mouse B16-4A5 cells at 300 uM after 72 hrs by spectrophotometric analysis relative to control; assay type: functional; settings: B16-4A5, 72 h

SMILES	inhibition [2] [%]	inhibition [4] [%]	IC50 [5] [µM]	inhibition [7] [%]	inhibition [8] [%]	inhibition [11] [%]	viability at 72 h, 30 µM [1] [%]	viability at 72 h, 3 µM [3] [%]	inhibition at 10 µM [6] [%]	viability at 72 h, 10 µM [9] [%]	inhibition at 30 µM [10] [%]	inhibition at 3 µM [12] [%]	viability at 72 h, 1 µM [13] [%]	inhibition at 1 µM [14] [%]	inhibition at 1000 µM [15] [%]	inhibition at 100 µM [16] [%]	inhibition at 300 µM [17] [%]
COc1cccc2c1[nH]c1c3c(c(C)cc12)OC(C)(CCC=C(C)C)C=C3 (centres undefined)	-2.8	-0.8	3.8	-1	2.7	-2.8	46.3	97.3	71.8	73.8		40.4	101	6.8			
Cc1cc2c3ccc(O)cc3n3c2c2c1O[C@@]1(C)CC[C@H]([C@H]2C1)C3(C)C (relative stereo)	3.5	20.2	2.9	-1.3	15.3	-0.6	71.1	94.4	66	76.8	74.3	50.8	101	26.9			
OC[C@H]1O[C@@H](Oc2ccc(O)cc2)[C@H](O)[C@@H](O)[C@@H]1O [ARBUTIN]			174								20.4				83.7	38.1	61.5
c1ccc2c(c1)[nH]c1ccccc12 [CARBAZOLE]	-2.2	0.1	> 100	1	1.7	-1.8	94.2	108	36.8	105	33.8	33.5	108	31.3			
COc1ccc2[nH]c3c4c(c(C)cc3c2c1)OC(C)(C)C=C4 [KOENIMBINE]	-0.1	4.3	1.2	0.7	1	-1	37.9	92.4	86.2	66.6		77	114	42.5			

Continued, in another order:

inhibition [2] [%]	inhibition [4] [%]	IC50 [5] [µM]	inhibition [7] [%]	inhibition [8] [%]	inhibition [11] [%]	SMILES	viability at 72 h, 30 µM [1] [%]	viability at 72 h, 3 µM [3] [%]	inhibition at 10 µM [6] [%]	viability at 72 h, 10 µM [9] [%]	inhibition at 30 µM [10] [%]	inhibition at 3 µM [12] [%]	viability at 72 h, 1 µM [13] [%]	inhibition at 1 µM [14] [%]	inhibition at 1000 µM [15] [%]	inhibition at 100 µM [16] [%]	inhibition at 300 µM [17] [%]
-1.1	-3.4	2.2	7.4	-0.3	-0.7	CC(C)=CCCC1(C)C=Cc2c(ccc3c2[nH]c2ccc(C)cc23)O1 (centres undefined)	63.9	117	85.2	103	78.4	60	110	25.9			
0.1	4.2	15.7	0.1	0.9	0.1	COc1ccc2c(c1)[nH]c1c3c(c(C)cc12)O[C@](C)(CCC=C(C)C)C=C3	66.3	98.7	40.8	94.9	58.3	8.7	105	10.9			
0.5	3.3	13.5	0.4	0.9	0.3	Oc1cccc2[nH]c3ccccc3c12	131	100	36.1	104	66.9	32.9	101	24.9			
-4.3	-1.1	4.1	-6.5	-6.4	-4.4	COc1ccc2c([nH]c3cc(O)c(C)cc32)c1C/C=C(\C)CCC=C(C)C [EUCHRESTINE B]	1.9	102	74.2	83.7		40.6	105	18.2			
2.3	16.1	8.3	1	5.9	2.7	CC(C)=CCC/C(C)=C/Cc1c(O)ccc2[nH]c3ccc(C)cc3c12 [EUSTIFOLINE C]	9.9	96.5	55.9	79.2		25.2	104	19.7			
-0.4	6.2	1.4	-1.3	2.7	-3.2	CC(C)=CCCC1(C)C=Cc2c(c(C)cc3c2[nH]c2ccccc23)O1 (centres undefined) [MAHANIMBINE]	35.1	68.7		34.4		63.9	94.3	43.3			
